Data reported in PMC12259270, “Sensory neuron–expressed FGF13 controls nociceptive signaling in diabetic neuropathy models” (The Journal of Clinical Investigation, 2025).
Values joined by “and” are separate entries in the source; they are usually repeats but may differ in a detail not shown here. Equal values may be shown once. Residues, ends and D or L forms follow the SMILES beside them. *: point of attachment. Cbz = O=C(OCc1ccccc1)*; NHPh = c1ccc(N*)cc1; OtBu = CC(C)(C)O*

Biological target: T1, FGF13/Nav1.7 CTD complex (Homo sapiens, UniProt Q92913)
T1 construct: Full-length FGF13-1b (aa 1-192) was subcloned into appropriate plasmids; Nav1.7 residues 1780-1977; expressed in transfected cells; host or cells: HEK293 (inferred; the LCA paragraph only says 'cells')
T1 sequence (Q92913 1-192 isoform Q92913-2): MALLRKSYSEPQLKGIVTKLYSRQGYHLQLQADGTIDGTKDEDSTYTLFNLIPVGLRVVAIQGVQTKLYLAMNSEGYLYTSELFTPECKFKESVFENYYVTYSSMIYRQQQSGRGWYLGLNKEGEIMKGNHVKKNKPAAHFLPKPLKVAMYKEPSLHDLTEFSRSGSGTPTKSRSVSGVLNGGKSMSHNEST
Assay: Split-luciferase complementation assay (LCA), CLuc-FGF13/CD4-Nav1.7-CTD-NLuc
Type: cell-based
Design: key to LCA dose response, Mean (Figure 1B): % of mean signal of per-plate 0.5% DMSO control wells
Conditions: for Percentage luminescence, Mean: Fig 1B dose response; for Luminescence signal over time, mean: FGF13, PW164
Source text: The respective gene ID numbers used in this study are as follows: NM_033642 (human, FGF13-1b) and NM_002977 (human SCN9A). Full-length FGF13-1b (aa 1-192) was subcloned into appropriate plasmids for use in this investigation, unless otherwise noted. For consistency with AlphaFold modeling presented, numbering of point mutations to FGF13-1b are based on the longest FGF13 isoform (FGF13-1a, NM_004114.2). CLuc-FGF13, […]
and constructs expressing the CLuc or the NLuc fragments of Firefly ( Photinus pyralis) luciferase (24) respectively were engineered, mutated (CLuc-FGF13R110A) and sequenced at the Molecular Genomics Core (University of Texas Medical Branch). The CD4 -Nav1.7-CTD-NLuc cassette was synthesized from GeneArt (Nav1.7 residues 1780-1977) (ThermoFisher) and subcloned at 5'-HindIII and 3’-BsiWi restriction sites in pcDNA3.1 (Invitrogen). Additionally, FGF13 was amplified with polymerase chain reaction (PCR) by using gene-specific primers, and subcloned in pcDNA3.1 at 5’ -BsiWi and 3’-Not I restriction sites. […]
Cell Culture and transfections
HEK293 cells were purchased from ATCC (catalog # CRL-1573). Cells were cultured and incubated at 37 °C with 5% CO2 in medium with equal volumes of Dulbecco modified essential medium (DMEM) and F12 […]
Split-luciferase Complementation Assay (LCA)
Twenty-four hours post transfection, cells were trypsinized using TrypLE (Gibco; cat # 12604013), centrifuged at 1750 rpm for 5 min, triturated in medium, and seeded into white clear-bottom 96-well CELLSTAR µClear® plates (Greiner Bio -One; cat # 655073 ) at ~0.8 x 10^5 cells per well in 200 µl of medium. The cells were incubated for another 24 hours, and then the growth medium was replaced with 100 µl serum -free, phenol red -free DMEM/F-12 medium (Invitrogen). All compounds from the PW - and the ZL-series, including PW164 and ZL192, were dissolved in DMSO, added to a final concentration of 1 –500 μM (0.5 % DMSO) in the serum -free medium and then cells were incubated for two hours. The bioluminescence reaction was initiated by injection of 100 μl of D -luciferin substrate (1.5 mg/ml dissolved in PBS) using a Synergy H4 multimode microplate reader (BioTek). Luminescence readings were initiated after 3 s of mild plate shaking and performed at 2 min intervals for 20-30 min with integration times of 0.5 s, and the c ells were maintained throughout the measurements at 37 °C. Raw signal intensity was computed by averaging peak luminescence plus two adjacent time points.
Normalized signal intensity was expressed as the percentage of mean signal intensity relative to per plate control wells treated with 0.5% DMSO. […]
The FGF13 was immobilized to the final 1 0050 RU, and Nav1.7 to the 10 or 1000 RU, and no protein was coupled to the control channel of the chip. For each compound, stock solution (50 mM) was serially diluted from 300 to 1 µM; the Nav1.7 -CTD peptide (1876 -1899, 23 amino acids, MW ~2.8 kDa) was se rially diluted from 150 to 1 nM in PBS-P+ (PBS supplemented 0.005% with tween 20). Samples were injected over the chip for 60 s followed by dissociation for 120 s at the flow rate 40 µl/min; finally, the chip was regenerated using the solution of 1.5 M NaCl, 3% DMSO for 180 s. The interaction of compound or un-conjugated Nav1.7 -CTD peptide with FGF13, as […]

## CC(=O)N[C@@H](Cc1ccccc1)C(=O)N[C@@H](CC(C)C)C(=O)N1CCC[C@H]1C(=O)N[C@@H](CCCCN)C(=O)Nc1ccccc1 [ZL192] (Ac-FLPK-NHPh)
FGF13, ZL192 vs Vehicle
  LCA signal, FGF13 (Figure 1B), individual replicates: 148.142 and 186.697 and 151.094 and 172.833 and 154.782 and 172.987 and 159.506 and 193.88 and 161.695 and 170.692 and 150.24 and 163.294
LCA dose-response, Fig 4B, read-out: EC50, increase of FGF13/Nav1.7 complex assembly
  EC50: 28 ± 5 µM
Log (conc(M)) -3.6
  LCA dose response, Mean (Figure 1B): 132.85
Log (conc(M)) -3.82
  LCA dose response, Mean (Figure 1B): 139.626
Log (conc(M)) -4
  LCA dose response, Mean (Figure 1B): 140.168
Log (conc(M)) -4.12
  LCA dose response, Mean (Figure 1B): 146.164
Log (conc(M)) -4.22
  LCA dose response, Mean (Figure 1B): 133.106
Log (conc(M)) -4.3
  LCA dose response, Mean (Figure 1B): 141.107
Log (conc(M)) -4.4
  LCA dose response, Mean (Figure 1B): 130.374
Log (conc(M)) -4.6
  LCA dose response, Mean (Figure 1B): 116.119
Log (conc(M)) -4.7
  LCA dose response, Mean (Figure 1B): 109.491
Log (conc(M)) -4.82
  LCA dose response, Mean (Figure 1B): 110.318
Log (conc(M)) -5
  LCA dose response, Mean (Figure 1B): 102.555
Log (conc(M)) -5.5
  LCA dose response, Mean (Figure 1B): 100.737
Log (conc(M)) -6
  LCA dose response, Mean (Figure 1B): 101.723

## COC(=O)[C@@H](NC(=O)[C@H](CCC(=O)OC(C)(C)C)NC(=O)[C@H](CC(C)C)NC(=O)[C@@H]1CCCN1C(=O)OCc1ccccc1)C(C)C [PW164] (Cbz-PLE(OtBu)V-OMe)
50 μM, individual replicates, vehicle about 100
  LCA screening of the PW-series compounds against the FGF13/Nav1.7 complex (Fig. S2C): 52.9829 and 54.4974 and 52.792 and 43.8067 and 53.8102 and 54.3574 and 65.3028 and 53.9247
Log (conc(M)) -3.6
  Percentage luminescence, Mean: 36.225%
Log (conc(M)) -3.82
  Percentage luminescence, Mean: 36.175%
Log (conc(M)) -4
  Percentage luminescence, Mean: 36.8%
Log (conc(M)) -4.12
  Percentage luminescence, Mean: 37.575%
Log (conc(M)) -4.22
  Percentage luminescence, Mean: 41.95%
Log (conc(M)) -4.3
  Percentage luminescence, Mean: 49.1%
Log (conc(M)) -4.4
  Percentage luminescence, Mean: 55.95%
Log (conc(M)) -4.6
  Percentage luminescence, Mean: 72.975%
Log (conc(M)) -4.7
  Percentage luminescence, Mean: 78.7625%
Log (conc(M)) -4.82
  Percentage luminescence, Mean: 95.2%
Log (conc(M)) -5
  Percentage luminescence, Mean: 102.25%
Log (conc(M)) -5.5
  Percentage luminescence, Mean: 98.45%
Log (conc(M)) -6
  Percentage luminescence, Mean: 97.8125%
Fig 1B, Time 0
  Luminescence signal over time, mean: 229.9
Fig 1B, Time 5
  Luminescence signal over time, mean: 547.2
Fig 1B, Time 10
  Luminescence signal over time, mean: 954.8
Fig 1B, Time 15
  Luminescence signal over time, mean: 1153.7
Fig 1B, FGF13, PW164 (20 μM)
  Percentage luminescence, single replicates: 42.7306% and 39.5799% and 34.1155% and 47.555% and 46.8165% and 80.4398% and 35.0509% and 53.5117% and 52.6748% and 30.1772% and 36.3308%
Figure 8D, WT PW164, replicate values beside WT DMSO
  LCA analysis of FGF13/Nav1.7: 48.4338 and 51.009 and 48.3348 and 45.8586 and 44.3729 and 45.9577 and 44.0758 and 49.7469 and 51.824 and 46.8389 and 47.9813
LCA dose response, Fig 1B, read-out: IC50, inhibition of FGF13/Nav1.7 complex assembly
  IC50: 29 ± 5 µM
